# In patent publication US9302999B2, “Substituted triazoles as herbicides” (E. I. DU PONT DE NEMOURS AND COMPANY, priority 2012, dated 2016):
# Key:
# Format in all cases: in vivo
# [1] = system: ragweed (common ragweed, Ambrosia elation); test: Test C pre-/postemergence: ragweed
# In short: (§1)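 Preemergence on seeds in loam/sand, postemergence on 2–18 cm (1–4-leaf) plants in peat-based medium; compounds in non-phytotoxic solvent with surfactant. After 13–15 days in greenhouse, visual rating versus controls, 0 (no effect) to 100 (complete control).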
# [2] = system: barnyardgrass (Echinochloa crus-galli); test: Test B flooded paddy: barnyardgrass; details: Flood; 250 g ai/ha; applied to paddy water at 2-leaf stage; visually evaluated after 13 to 15 days
# In short: (§2)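 Plants were grown to the 2-leaf stage, then pots were flooded to 3 cm above the soil and compounds were applied directly into the paddy water. Water depth was held for the whole test; after 13 to 15 days in a greenhouse, injury was visually rated against untreated controls (0 = no effect, 100 = complete control).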
# [3] = system: pigweed (Amaranthus retroflexus); test: Test A pre-/postemergence: pigweed
# In short: (§3)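 Whole-plant greenhouse assay in loam/sand. Preemergence directed soil spray plus simultaneous postemergence spray (one- to two-leaf stage, 2–10 cm). Rated visually ~10 days later, 0 = no effect, 100 = complete control.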
# wild oat (Avena fatua) = test: Test C pre-/postemergence: wild oat; details: Postemergence
# In short: as §1
# [4] = system: foxtail, giant (giant foxtail, Setaria faberii); test: Test C pre-/postemergence: foxtail, giant
# In short: as §1
# kochia (Kochia scoparia) = test: Test C pre-/postemergence: kochia; details: Postemergence
# In short: as §1
# [5] = system: foxtail, giant (giant foxtail, Setaria faberii); test: Test A pre-/postemergence: foxtail, giant
# In short: as §3
# [6] = system: ducksalad (Heteranthera limosa); test: Test B flooded paddy: ducksalad; details: Flood; 250 g ai/ha; applied to paddy water at 2-leaf stage; visually evaluated after 13 to 15 days
# In short: as §2
# [7] = system: chickweed (common chickweed, Stellaria media); test: Test C postemergence: chickweed
# In short: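 Pot-grown plants in peat/vermiculite medium sprayed postemergence at 2–18 cm height (1- to 4-leaf stage). Kept in greenhouse 13 to 15 days, then visually rated against untreated controls on a 0–100 scale (0 = no effect, 100 = complete control).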
# [8] = system: crabgrass, large (large crabgrass, Digitaria sanguinalis); test: Test A pre-/postemergence: crabgrass, large
# In short: as §3
# [9] = system: velvetleaf (Abutilon theophrasti); test: Test A pre-/postemergence: velvetleaf
# In short: as §3
# [10] = Postemergence, 31 g ai/ha, scale 0 to 100 (0 no effect, 100 complete control)
# [11] = Postemergence, 62 g ai/ha, scale 0 to 100 (0 no effect, 100 complete control)
# [12] = Postemergence, 125 g ai/ha, scale 0 to 100, 0 no effect, 100 complete control
# [13] = Postemergence, 250 g ai/ha, scale 0 to 100 (0 no effect, 100 complete control)
# [14] = Preemergence, 31 g ai/ha, scale 0 (no effect) to 100 (complete control)
# [15] = Preemergence, 62 g ai/ha, scale of 0 to 100, 0 is no effect, 100 is complete control
# [16] = Preemergence, 125 g ai/ha, scale 0 to 100, 0 no effect, 100 complete control
# [17] = Preemergence, 250 g ai/ha, scale 0 to 100, 0 no effect, 100 complete control
# [18] = Postemergence, 125 g ai/ha, 0 to 100 scale, 0 is no effect, 100 is complete control
# [19] = Postemergence, 500 g ai/ha, 0 to 100 scale, 0 is no effect, 100 is complete control
# [20] = Preemergence, 125 g ai/ha, 0 to 100 scale where 0 is no effect and 100 is complete control
# [21] = Preemergence, 500 g ai/ha, 0 to 100 scale (0 no effect, 100 complete control)
# [22] = 31 g ai/ha, scale 0 to 100 (0 no effect, 100 complete control)
# [23] = 62 g ai/ha, scale 0 to 100 (0 no effect, 100 complete control)
# [24] = 125 g ai/ha, scale 0 to 100, 0 no effect, 100 complete control
# [25] = 250 g ai/ha, scale 0 to 100 (0 no effect, 100 complete control)
# [26] = Postemergence, 250 g ai/ha, scale 0 to 100
smiles,measurement,setting,value
CCc1nn(-c2ccc(C(F)(F)F)cc2)nc1Oc1ccnc(C(F)(F)F)c1 [Compound 169],"Plant response rating, Ragweed",[1]; [10],40
same,"Plant response rating, Ragweed",[1]; [11],60
same,"Plant response rating, Ragweed",[1]; [12],85
same,"Plant response rating, Ragweed",[1]; [13],95
same,"Plant response rating, Ragweed",[1]; [14],15
same,"Plant response rating, Ragweed",[1]; [15],15
same,"Plant response rating, Ragweed",[1]; [16],30
same,"Plant response rating, Ragweed",[1]; [17],65
same,"Plant response rating, Barnyardgrass (0 to 100 scale, 0 is no effect, 100 is complete control)",[2],75
same,"Plant response rating, Pigweed",[3]; [18],100
same,Pigweed plant response rating,[3]; [19],100
same,"Plant response rating, Pigweed",[3]; [20],100
same,"Plant response rating, Pigweed",[3]; [21],100
same,"Plant response rating, Oat, Wild",wild oat (Avena fatua); [22],5
same,"Plant response rating, Oat, Wild",wild oat (Avena fatua); [23],25
same,"Plant response rating, Oat, Wild",wild oat (Avena fatua); [24],30
same,"Plant response rating, Oat, Wild",wild oat (Avena fatua); [25],50
same,"Plant response rating, Foxtail, Giant",[4]; [10],20
same,"Plant response rating, Foxtail, Giant",[4]; [11],65
same,"Plant response rating, Foxtail, Giant",[4]; [12],65
same,"Plant response rating, Foxtail, Giant",[4]; [26],90
same,"Plant response rating, Foxtail, Giant",[4]; [14],100
same,"Plant response rating, Foxtail, Giant",[4]; [15],100
same,"Plant response rating, Foxtail, Giant",[4]; [16],100
same,"Plant response rating, Foxtail, Giant",[4]; [17],100
same,"Plant response rating, Kochia",kochia (Kochia scoparia); [22],85
same,"Plant response rating, Kochia",kochia (Kochia scoparia); [23],90
same,"Plant response rating, Kochia",kochia (Kochia scoparia); [24],90
same,"Plant response rating, Kochia",kochia (Kochia scoparia); [25],90
same,"Plant response rating, Foxtail, Giant",[5]; [18],80
same,"Foxtail, Giant plant response rating",[5]; [19],90
same,"Plant response rating, Foxtail, Giant",[5]; [20],100
same,"Plant response rating, Foxtail, Giant",[5]; [21],100
same,"Plant response rating, Ducksalad (0 to 100 scale, 0 is no effect, 100 is complete control)",[6],85
same,"Plant response rating, Chickweed",[7]; [22],60
same,"Plant response rating, Chickweed",[7]; [23],60
same,"Plant response rating, Chickweed",[7]; [24],95
same,"Plant response rating, Chickweed","[7]; 250 g ai/ha, scale 0 to 100",100
same,"Plant response rating, Crabgrass, Large",[8]; [18],90
same,"Crabgrass, Large plant response rating",[8]; [19],90
same,"Plant response rating, Crabgrass, Large",[8]; [20],100
same,"Plant response rating, Crabgrass, Large",[8]; [21],100
same,"Plant response rating, Velvetleaf",[9]; [18],100
same,Velvetleaf plant response rating,[9]; [19],100
same,"Plant response rating, Velvetleaf",[9]; [20],50
same,"Plant response rating, Velvetleaf",[9]; [21],90
CCCc1nn(-c2ccc(C(F)(F)F)cc2)nc1Oc1ccnc(C(F)(F)F)c1 [Compound 170],"Plant response rating, Ragweed",[1]; [10],85
same,"Plant response rating, Ragweed",[1]; [11],85
same,"Plant response rating, Ragweed",[1]; [12],90
same,"Plant response rating, Ragweed",[1]; [13],90
same,"Plant response rating, Ragweed",[1]; [14],5
same,"Plant response rating, Ragweed",[1]; [15],60
same,"Plant response rating, Ragweed",[1]; [16],75
same,"Plant response rating, Ragweed",[1]; [17],95
same,"Plant response rating, Barnyardgrass (0 to 100 scale, 0 is no effect, 100 is complete control)",[2],80
same,"Plant response rating, Pigweed",[3]; [18],100
same,Pigweed plant response rating,[3]; [19],100
same,"Plant response rating, Pigweed",[3]; [20],100
same,"Plant response rating, Pigweed",[3]; [21],100
same,"Plant response rating, Oat, Wild",wild oat (Avena fatua); [22],30
same,"Plant response rating, Oat, Wild",wild oat (Avena fatua); [23],65
same,"Plant response rating, Oat, Wild",wild oat (Avena fatua); [24],85
same,"Plant response rating, Oat, Wild",wild oat (Avena fatua); [25],90
same,"Plant response rating, Foxtail, Giant",[4]; [10],55
same,"Plant response rating, Foxtail, Giant",[4]; [11],80
same,"Plant response rating, Foxtail, Giant",[4]; [12],98
same,"Plant response rating, Foxtail, Giant",[4]; [26],98
same,"Plant response rating, Foxtail, Giant",[4]; [14],98
same,"Plant response rating, Foxtail, Giant",[4]; [15],100
same,"Plant response rating, Foxtail, Giant",[4]; [16],100
same,"Plant response rating, Foxtail, Giant",[4]; [17],100
same,"Plant response rating, Kochia",kochia (Kochia scoparia); [22],90
same,"Plant response rating, Kochia",kochia (Kochia scoparia); [23],90
same,"Plant response rating, Kochia",kochia (Kochia scoparia); [24],90
same,"Plant response rating, Kochia",kochia (Kochia scoparia); [25],90
same,"Plant response rating, Foxtail, Giant",[5]; [18],90
same,"Foxtail, Giant plant response rating",[5]; [19],90
same,"Plant response rating, Foxtail, Giant",[5]; [20],100
same,"Plant response rating, Foxtail, Giant",[5]; [21],100
same,"Plant response rating, Ducksalad (0 to 100 scale, 0 is no effect, 100 is complete control)",[6],35
same,"Plant response rating, Chickweed",[7]; [22],75
same,"Plant response rating, Chickweed",[7]; [23],95
same,"Plant response rating, Chickweed","[7]; 250 g ai/ha, scale 0 to 100",95
same,"Plant response rating, Crabgrass, Large",[8]; [18],100
same,"Crabgrass, Large plant response rating",[8]; [19],100
same,"Plant response rating, Crabgrass, Large",[8]; [20],100
same,"Plant response rating, Crabgrass, Large",[8]; [21],100
same,"Plant response rating, Velvetleaf",[9]; [18],100
same,Velvetleaf plant response rating,[9]; [19],100
same,"Plant response rating, Velvetleaf",[9]; [20],90
same,"Plant response rating, Velvetleaf",[9]; [21],100
CCc1nn(-c2ccc(F)c(F)c2)nc1Oc1ccnc(C(F)(F)F)c1 [Compound 171],"Plant response rating, Ragweed",[1]; [10],55
same,"Plant response rating, Ragweed",[1]; [11],55
same,"Plant response rating, Ragweed",[1]; [12],55
same,"Plant response rating, Ragweed",[1]; [13],55
same,"Plant response rating, Ragweed",[1]; [14],0
same,"Plant response rating, Ragweed",[1]; [15],5
same,"Plant response rating, Ragweed",[1]; [16],10
same,"Plant response rating, Ragweed",[1]; [17],15
same,"Plant response rating, Barnyardgrass (0 to 100 scale, 0 is no effect, 100 is complete control)",[2],70
same,"Plant response rating, Pigweed",[3]; [18],100
same,Pigweed plant response rating,[3]; [19],100
same,"Plant response rating, Pigweed",[3]; [20],100
same,"Plant response rating, Pigweed",[3]; [21],100
same,"Plant response rating, Oat, Wild",wild oat (Avena fatua); [22],5
same,"Plant response rating, Oat, Wild",wild oat (Avena fatua); [23],5
same,"Plant response rating, Oat, Wild",wild oat (Avena fatua); [24],10
same,"Plant response rating, Oat, Wild",wild oat (Avena fatua); [25],20
same,"Plant response rating, Foxtail, Giant",[4]; [10],25
same,"Plant response rating, Foxtail, Giant",[4]; [11],35
same,"Plant response rating, Foxtail, Giant",[4]; [12],55
same,"Plant response rating, Foxtail, Giant",[4]; [26],70
same,"Plant response rating, Foxtail, Giant",[4]; [14],98
same,"Plant response rating, Foxtail, Giant",[4]; [15],100
same,"Plant response rating, Foxtail, Giant",[4]; [16],100
same,"Plant response rating, Foxtail, Giant",[4]; [17],100
same,"Plant response rating, Kochia",kochia (Kochia scoparia); [22],90
same,"Plant response rating, Kochia",kochia (Kochia scoparia); [23],90
same,"Plant response rating, Kochia",kochia (Kochia scoparia); [24],90
same,"Plant response rating, Kochia",kochia (Kochia scoparia); [25],90
same,"Plant response rating, Foxtail, Giant",[5]; [18],80
same,"Foxtail, Giant plant response rating",[5]; [19],90
same,"Plant response rating, Foxtail, Giant",[5]; [20],100
same,"Plant response rating, Foxtail, Giant",[5]; [21],100
same,"Plant response rating, Ducksalad (0 to 100 scale, 0 is no effect, 100 is complete control)",[6],0
same,"Plant response rating, Chickweed",[7]; [22],50
same,"Plant response rating, Chickweed",[7]; [23],70
same,"Plant response rating, Chickweed",[7]; [24],95
same,"Plant response rating, Chickweed","[7]; 250 g ai/ha, scale 0 to 100",100
same,"Plant response rating, Crabgrass, Large",[8]; [18],90
same,"Crabgrass, Large plant response rating",[8]; [19],100
same,"Plant response rating, Crabgrass, Large",[8]; [20],100
same,"Plant response rating, Crabgrass, Large",[8]; [21],100
same,"Plant response rating, Velvetleaf",[9]; [18],70
same,Velvetleaf plant response rating,[9]; [19],90
same,"Plant response rating, Velvetleaf",[9]; [20],60
same,"Plant response rating, Velvetleaf",[9]; [21],80
